Assay results reported in patent publication US20240190874A1, “SMALL MOLECULE DEGRADERS OF ANDROGEN RECEPTOR” (THE REGENTS OF THE UNIVERSITY OF MICHIGAN, priority 2021, published 2024).
Where two headings read alike, the source gives them in different places.

Legend:
Type in all cases: cell-based
[1] = system: LNCaP cells; assay: Cellular potency (IC50) in LNCaP cells
Procedure: (§1) Biological Assays. LNCaP and VCaP cells used were purchased from American Type Culture Collection (ATCC). LNCaP were grown in RPMI 1640 (Invitrogen) and VCaP cells were grown in DMEM with Glutamax (Invitrogen). All of the cells were supplemented with 10% fetal bovine serum (Invitrogen) at 37° C. in a humidified 5% CO2 incubator.

[2] = target: T1, AR (Homo sapiens, UniProt P10275); assay: Degradation of AR in VCaP cells; details: VCaP cells; for Dmax: VCaP
T1 construct: Degradation of AR; Cellular potency; host or cells: VCaP cells
T1 sequence (P10275 1-920): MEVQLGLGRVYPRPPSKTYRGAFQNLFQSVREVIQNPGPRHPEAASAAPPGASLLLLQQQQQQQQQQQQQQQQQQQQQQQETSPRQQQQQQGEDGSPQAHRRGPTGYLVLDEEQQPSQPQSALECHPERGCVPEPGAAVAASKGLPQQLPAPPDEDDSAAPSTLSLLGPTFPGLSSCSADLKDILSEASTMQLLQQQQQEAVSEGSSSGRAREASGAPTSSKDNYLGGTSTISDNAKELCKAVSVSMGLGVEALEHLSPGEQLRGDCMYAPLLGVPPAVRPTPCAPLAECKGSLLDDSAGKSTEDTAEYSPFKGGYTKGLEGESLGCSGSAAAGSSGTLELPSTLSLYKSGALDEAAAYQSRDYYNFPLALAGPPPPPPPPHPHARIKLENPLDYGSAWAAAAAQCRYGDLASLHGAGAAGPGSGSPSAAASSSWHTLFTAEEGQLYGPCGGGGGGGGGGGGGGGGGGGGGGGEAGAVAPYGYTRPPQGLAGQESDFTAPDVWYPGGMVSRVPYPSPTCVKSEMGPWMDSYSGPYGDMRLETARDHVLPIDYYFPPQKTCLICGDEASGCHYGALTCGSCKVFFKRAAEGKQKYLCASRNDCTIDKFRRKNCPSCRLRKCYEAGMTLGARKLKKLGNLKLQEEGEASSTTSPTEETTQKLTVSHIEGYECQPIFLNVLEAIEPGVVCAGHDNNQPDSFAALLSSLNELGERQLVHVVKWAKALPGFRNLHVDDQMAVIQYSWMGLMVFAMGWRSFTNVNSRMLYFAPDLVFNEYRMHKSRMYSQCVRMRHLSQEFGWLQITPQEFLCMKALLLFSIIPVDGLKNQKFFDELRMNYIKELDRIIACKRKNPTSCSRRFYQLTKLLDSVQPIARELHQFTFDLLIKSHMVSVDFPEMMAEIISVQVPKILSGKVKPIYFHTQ
Procedure: as §1

[3] = system: VCaP cells; assay: Cellular potency (IC50) in VCaP cells
Procedure: as §1

Compound | IC50 ([1]; Homo sapiens, LNCaP) | Dmax [2] | IC50 ([3]; Homo sapiens, VCaP) | DC50 [2] | IC50 [1] | Degradation of AR in VCaP cells Dmax [2] | IC50 [3]
C=C1CCC(N2C(=O)c3ccc(N4CCC(N5CCN(Cc6ccc(N7CCC8(CC7)C[C@H](C)N(c7ccc(C#N)c(Cl)c7)C8)cc6)CC5)CC4)cc3C2=O)C(=O)N1 (stereo partly drawn) [compound 18] | < 10 nM | > 90% | < 10 nM | – | – | – | –
C[C@H]1CC2(CCN(c3ccc(CN4CCC(N5Cc6cc7c(cc6C5)C(=O)N(C5CCC(=O)NC5=O)C7=O)CC4)cc3)CC2)CN1c1ccc(C#N)c(Cl)c1 (stereo partly drawn) [compound 19] | < 100 nM | 70 to 90% | < 100 nM | < 100 nM | – | – | –
C[C@H]1CC2(CCN(c3ccc(CN4CCC(CN5Cc6cc7c(cc6C5)C(=O)N(C5CCC(=O)NC5=O)C7=O)CC4)cc3)CC2)CN1c1ccc(C#N)c(Cl)c1 (stereo partly drawn) [compound 20] | < 100 nM | 70 to 90% | < 100 nM | < 100 nM | – | – | –
C[C@H]1CC2(CCN(c3ccc(C4CCN(CC5CN(c6ccc7c(c6)C(=O)N(C6CCC(=O)NC6=O)C7=O)C5)CC4)cc3)CC2)CN1c1ccc(C#N)c(Cl)c1 (stereo partly drawn) [compound 21] | < 10 nM | > 90% | < 10 nM | < 1 nM | – | – | –
C[C@H]1CC2(CCN(c3ccc(C4CCN(C5CN(c6ccc7c(c6)C(=O)N(C6CCC(=O)NC6=O)C7=O)C5)CC4)cc3)CC2)CN1c1ccc(C#N)c(Cl)c1 (stereo partly drawn) [compound 22] | < 100 nM | 70 to 90% | < 100 nM | < 100 nM | – | – | –
C=C1CCC(N2C(=O)c3ccc(N4CC(N5CCC(Cc6ccc(N7CCC8(CC7)C[C@H](C)N(c7ccc(C#N)c(Cl)c7)C8)cc6)CC5)C4)cc3C2=O)C(=O)N1 (stereo partly drawn) [compound 23] | < 10 nM | > 90% | < 10 nM | – | – | – | –
C=C1CCC(N2C(=O)c3ccc(N4CCC(N5CCC(Cc6ccc(N7CCC8(CC7)C[C@H](C)N(c7ccc(C#N)c(Cl)c7)C8)cc6)CC5)CC4)cc3C2=O)C(=O)N1 (stereo partly drawn) [compound 24] | < 10 nM | > 90% | < 10 nM | – | – | – | –
C[C@H]1CC2(CCN(c3ccc(CC4CCN(CC5CN(c6ccc7c(c6)C(=O)N(C6CCC(=O)NC6=O)C7=O)C5)CC4)cc3)CC2)CN1c1ccc(C#N)c(Cl)c1 (stereo partly drawn) [compound 25] | < 10 nM | > 90% | < 10 nM | < 1 nM | – | – | –
C[C@H]1CC2(CCN(c3ccc(CC4CCN(CC5CCN(c6ccc7c(c6)C(=O)N(C6CCC(=O)NC6=O)C7=O)CC5)CC4)cc3)CC2)CN1c1ccc(C#N)c(Cl)c1 (stereo partly drawn) [compound 26] | < 10 nM | > 90% | < 10 nM | < 1 nM | – | – | –
C[C@H]1CC2(CCN(c3ccc(N4CCN(C5CN(c6ccc7c(c6)C(=O)N(C6CCC(=O)NC6=O)C7=O)C5)CC4)cc3)CC2)CN1c1ccc(C#N)c(Cl)c1 (stereo partly drawn) [compound 27] | < 10 nM | > 90% | < 10 nM | < 1 nM | – | – | –
C[C@H]1CC2(CCN(c3ccc(N4CCN(CC5CN(c6ccc7c(c6)C(=O)N(C6CCC(=O)NC6=O)C7=O)C5)CC4)cc3)CC2)CN1c1ccc(C#N)c(Cl)c1 (stereo partly drawn) [compound 28, 2-chloro-4-((3S)-8-(4-(4-((1-(2-(2,6-dioxopiperidin-3-yl)-1,3-dioxoisoindolin-5-yl)azetidin-3-yl)methyl)piperazin-1-yl)phenyl)-3-methyl-2,8-diazaspiro[4.5]decan-2-yl)benzonitrile] | < 10 nM | > 90% | < 10 nM | – | – | – | –
C[C@H]1CC2(CCN(c3ccc(N4CCN(C5CCN(c6ccc7c(c6)C(=O)N(C6CCC(=O)NC6=O)C7=O)CC5)CC4)cc3)CC2)CN1c1ccc(C#N)c(Cl)c1 (stereo partly drawn) [compound 29] | < 100 nM | > 90% | < 100 nM | < 100 nM | – | – | –
C[C@H]1CC2(CCN(c3ccc(N4CCN(CC5CCN(c6ccc7c(c6)C(=O)N(C6CCC(=O)NC6=O)C7=O)CC5)CC4)cc3)CC2)CN1c1ccc(C#N)c(Cl)c1 (stereo partly drawn) [compound 30] | < 10 nM | > 90% | < 10 nM | < 1 nM | – | – | –
C[C@H]1CC2(CCN(c3ccc(N4CCN(CC5CN(c6ccc7c(c6)C(=O)N(C6CCC(=O)NC6=O)C7=O)C5)CC4)cn3)CC2)CN1c1ccc(C#N)c(Cl)c1 (stereo partly drawn) [compound 31] | < 10 nM | > 90% | < 10 nM | < 1 nM | – | – | –
C[C@H]1CC2(CCN(c3ccc(N4CCN(CC5CCN(c6ccc7c(c6)C(=O)N(C6CCC(=O)NC6=O)C7=O)CC5)CC4)cn3)CC2)CN1c1ccc(C#N)c(Cl)c1 (stereo partly drawn) [compound 32] | < 10 nM | > 90% | < 10 nM | < 1 nM | – | – | –
C[C@H]1CC2(CCN(c3ccc(N4CCN(C5CN(c6ccc7c(c6)C(=O)N(C6CCC(=O)NC6=O)C7=O)C5)CC4)cn3)CC2)CN1c1ccc(C#N)c(Cl)c1 (stereo partly drawn) [compound 33] | < 10 nM | 70 to 90% | < 10 nM | < 10 nM | – | – | –
C[C@H]1CC2(CCN(c3ccc(N4CCN(CC5CN(c6ccc7c(c6)C(=O)N(C6CCC(=O)NC6=O)C7=O)C5)CC4)nc3)CC2)CN1c1ccc(C#N)c(Cl)c1 (stereo partly drawn) [compound 34] | < 10 nM | > 90% | < 10 nM | < 1 nM | – | – | –
C[C@H]1CC2(CCN(c3ccc(N4CCN(CC5CCN(c6ccc7c(c6)C(=O)N(C6CCC(=O)NC6=O)C7=O)CC5)CC4)nc3)CC2)CN1c1ccc(C#N)c(Cl)c1 (stereo partly drawn) [compound 35] | < 10 nM | > 90% | < 10 nM | < 1 nM | – | – | –
C[C@H]1CC2(CCN(c3ccc(N4CCN(C5CN(c6ccc7c(c6)C(=O)N(C6CCC(=O)NC6=O)C7=O)C5)CC4)nc3)CC2)CN1c1ccc(C#N)c(Cl)c1 (stereo partly drawn) [compound 36] | < 10 nM | > 90% | < 10 nM | < 1 nM | – | – | –
C[C@H]1CC2(CCN(c3ccc(N4CCN(CC5CN(c6ccc7c(c6)C(=O)N(C6CCC(=O)NC6=O)C7=O)C5)CC4)cc3F)CC2)CN1c1ccc(C#N)c(Cl)c1 (stereo partly drawn) [compound 37] | < 10 nM | > 90% | < 10 nM | < 1 nM | – | – | –
C=C1CCC(N2C(=O)c3ccc(N4CCC(CN5CCN(c6ccc(N7CCC8(CC7)C[C@H](C)N(c7ccc(C#N)c(Cl)c7)C8)c(F)c6)CC5)CC4)cc3C2=O)C(=O)N1 (stereo partly drawn) [compound 38] | < 10 nM | > 90% | < 10 nM | – | – | – | –
C[C@H]1CC2(CCN(c3ccc(N4CCN(C5CN(c6ccc7c(c6)C(=O)N(C6CCC(=O)NC6=O)C7=O)C5)CC4)cc3F)CC2)CN1c1ccc(C#N)c(Cl)c1 (stereo partly drawn) [compound 39] | < 10 nM | > 90% | < 10 nM | < 1 nM | – | – | –
C[C@H]1CC2(CCN(c3ccc(CN4CCN(C5CN(c6ccc7c(c6)C(=O)N(C6CCC(=O)NC6=O)C7=O)C5)CC4)c(F)c3)CC2)CN1c1ccc(C#N)c(Cl)c1 (stereo partly drawn) [compound 40] | – | – | – | < 10 nM | < 100 nM | A (A = >90%) | < 100 nM
C[C@H]1CC2(CCN(c3ccc(CN4CCC(C5CN(c6ccc7c(c6)C(=O)N(C6CCC(=O)NC6=O)C7=O)C5)CC4)c(F)c3)CC2)CN1c1ccc(C#N)c(Cl)c1 (stereo partly drawn) [compound 41] | – | – | – | < 10 nM | < 100 nM | A (A = >90%) | < 100 nM
C[C@H]1CC2(CCN(c3ccc(CN4CCN(C5CCN(c6ccc7c(c6)C(=O)N(C6CCC(=O)NC6=O)C7=O)CC5)CC4)c(F)c3)CC2)CN1c1ccc(C#N)c(Cl)c1 (stereo partly drawn) [compound 42] | – | – | – | < 10 nM | < 100 nM | A (A = >90%) | < 100 nM
C[C@H]1CC2(CCN(c3ccc(C4CCN(CC5CN(c6ccc7c(c6)C(=O)N(C6CCC(=O)NC6=O)C7=O)C5)CC4)cn3)CC2)CN1c1ccc(C#N)c(Cl)c1 (stereo partly drawn) [compound 43] | < 10 nM | > 90% | < 10 nM | < 1 nM | – | – | –
C[C@H]1CC2(CCN(c3ccc(C4CCN(CC5CCN(c6ccc7c(c6)C(=O)N(C6CCC(=O)NC6=O)C7=O)CC5)CC4)cn3)CC2)CN1c1ccc(C#N)c(Cl)c1 (stereo partly drawn) [compound 44] | < 10 nM | > 90% | < 10 nM | < 1 nM | – | – | –
C[C@H]1CC2(CCN(c3ccc(C4CCN(CC5CN(c6ccc7c(c6)C(=O)N(C6CCC(=O)NC6=O)C7=O)C5)CC4)nc3)CC2)CN1c1ccc(C#N)c(Cl)c1 (stereo partly drawn) [compound 45] | < 10 nM | > 90% | < 10 nM | < 1 nM | – | – | –
C[C@H]1CC2(CCN(c3ccc(N4CCN(CC5CN(c6ccc7c(c6)C(=O)N(C6CCC(=O)NC6=O)C7=O)C5)CC4)nn3)CC2)CN1c1ccc(C#N)c(Cl)c1 (stereo partly drawn) [compound 47] | < 10 nM | > 90% | < 10 nM | < 1 nM | – | – | –
